Assay results as given in paper PMC3188543, “The Anti-interferon Activity of Conserved Viral dUTPase ORF54 is Essential for an Effective MHV-68 Infection” (PLoS Pathogens, 2011).

Target: T1, murine cellular dUTPase (Mus musculus, UniProt Q9CQ43)
T1 construct: gene Dut; FLAG-tagged, expressed in 293T, anti-FLAG immunopurified, 3xFLAG peptide eluted; tag kept; homotrimer
T1 sequence (Q9CQ43 1-162): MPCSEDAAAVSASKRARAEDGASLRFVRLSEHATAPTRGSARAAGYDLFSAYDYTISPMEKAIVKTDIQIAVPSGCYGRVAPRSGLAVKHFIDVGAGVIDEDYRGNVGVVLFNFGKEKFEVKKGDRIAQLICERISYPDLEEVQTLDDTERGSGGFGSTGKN
Experiment: dUTP hydrolysis, read out by PCR with remaining dUTP in place of dTTP (gel)
Assay type: biochemical
Conditions: pH 7.5, 37 C, MgCl2, DTT, BSA; 5 mM dUTP stock; 0-25 h

`O=c1ccn([C@H]2C[C@H](O)[C@@H](COP(=O)(O)OP(=O)(O)OP(=O)(O)O)O2)c(=O)[nH]1` [dUTP] was tested, and the “dUTP hydrolysis, read out by PCR with remaining dUTP in place of dTTP (gel)” value was “used to determine the presence of functional dUTP after incubation”.
